How the values were obtained:
[1] = target: recombinant human GST-Syk (Homo sapiens (Human), UniProt P43405); assay: Homogeneous Time-Resolved Fluorescence (HTRF) assay for the recombinant human Syk enzyme; format: biochemical; details: recombinant human GST-Syk 5 pM, ATP 25 μM, read-out: rhSyk IC50
Method in brief: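 Recombinant GST-hSyk fusion protein kinase activity was read by HTRF. Reactions were started with biotinylated substrate peptide at 250 nM final, Mg 5 mM final and ATP 25 μM final. Potency derived from inhibition of substrate phosphorylation.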

[2] = Hydrolysis assay: hydrolysis of prodrug to parent species in human liver S9; format: in vitro ADME; details: human liver S9 1 mg protein/mL, prodrug 10 μM, 37° C., pH 7.4, 1 mM NADPH; for half-life at 10 μM: read-out: Half-life (min) of the conversion of the prodrug to the carboxylic acid
Experimental: Hydrolysis Assay: Analysis of Hydrolysis of Prodrug to Parent Species
The stability of 8 different prodrugs was investigated in human liver S9 microsomes. Incubations of prodrugs (10 μM) with liver S9 (1 mg protein/mL) were carried out at 37° C. in a phosphate buffer, pH 7.4, containing 1 mM NADPH. Control incubations contained BSA (1.1 mg/mL) instead of liver S9 microsomes. Aliquots were removed at 0, 5, 15, 30, 60 and 120 min, treated with 4 volumes of acetonitrile containing 2% formic acid and an internal standard, and centrifuged. The supernatants were analyzed by LC-MS/MS for prodrug disappearance and appearance of active drug. The half-life of the prodrug was calculated from the % prodrug remaining at different time points calculated from on the peak area ratio relative to t=0. The amount of active drug generated at the different time points was determined using a standard curve.

Syk kinase [3] = target: T1, Syk kinase (Homo sapiens (Human), UniProt P43405); details: dosed intranasally, allergic rhinitis; cited from earlier work
Syk kinase [4] = target: T1, Syk kinase; details: phase II clinical trial, allergic rhinitis; cited from earlier work

Q: For `CCOC(=O)[C@H]1CC[C@H](C(C)(O)c2ccc(-c3cc(C)cc(Nc4cc(C(F)F)ccn4)n3)cn2)CC1` (single isomer, unassigned) [Example 17, Ethyl trans-4-[(1R or 1S)-1-(6-{[4-(difluoromethyl)pyridin-2-yl]amino}-4-methyl-2,3′-bipyridin-6′-yl)-1-hydroxyethyl]cyclohexanecarboxylate], which IC50 [1] is on record?
A: 18 nM

Q: And the half-life at 10 μM [2]?
A: 5.6 min

Q: Which IC50 [1] does the source give for `COCCOC(=O)[C@H]1CC[C@H](C(C)(O)c2ccc(-c3cc(C)cc(Nc4cc(C(F)F)ccn4)n3)cn2)CC1` (single isomer, unassigned) [Example 19-15, 2-methoxyethyl trans-4-[(1R or 1S)-1-(6-{[4-(difluoromethyl)pyridin-2-yl]amino}-4-methyl-2,3′-bipyridin-6′-yl)-1-hydroxyethyl] cyclohexanecarboxylate] here?
A: 6.4 nM

Q: And the “Half-life (min) of the conversion of the prodrug to the carboxylic acid” value (“Half-life (min)” below) [2]?
A: 3.9 min

Q: With `Cc1cc(Nc2cc(C(F)F)ccn2)nc(-c2ccc(C(C)(O)[C@H]3CC[C@H](C(=O)OCCN4CCOCC4)CC3)nc2)c1` (single isomer, unassigned) [Example 19-19, 2-{morpholin-4-yl)ethyl trans-4-[(1R or 1S)-1-(6-{[4-(difluoromethyl)pyridin-2-yl]amino}-4-methyl-2,3′-bipyridin-6′-yl)-1-hydroxyethyl] cyclohexanecarboxylate] as the molecule, how does the IC50 [1] read?
A: 8.7 nM

Q: What about the “Half-life (min)” value [2] of the same molecule?
A: 15 min

Q: Which results are given for `CC(=O)OCOC(=O)[C@H]1CC[C@H](C(C)(O)c2ccc(-c3cc(C)cc(Nc4cc(C(F)F)ccn4)n3)cn2)CC1` (single isomer, unassigned) [Example 21, (Acetyloxy)methyl trans-4-[(1R or 1S)-1-(6-{[4-(difluoromethyl)pyridin-2-yl]amino}-4-methyl-2,3′-bipyridin-6′-yl)-1-hydroxyethyl]cyclohexanecarboxylate]?
A: IC50 [1]: 11 nM; half-life at 10 μM [2]: 3.3 min

Q: Which IC50 [1] does the source give for `CCOC(=O)OCOC(=O)[C@H]1CC[C@H](C(C)(O)c2ccc(-c3cc(C)cc(Nc4cc(C(F)F)ccn4)n3)cn2)CC1` (single isomer, unassigned) [Example 20, [(Ethoxycarbonyl)oxy]methyl trans-4-[(1R or 1S)-1-(6-{[4-(difluoromethyl)pyridin-2-yl]amino}-4-methyl-2,3′-bipyridin-6′-yl)-1-hydroxyethyl]cyclohexanecarboxylate] here?
A: 14 nM

Q: What about the half-life at 10 μM [2] of the same molecule?
A: 3 min

Q: Which IC50 [1] does the source give for `COC(=O)[C@H]1CC[C@H](C(C)(O)c2ccc(-c3cc(C)cc(Nc4cc(C(F)F)ccn4)n3)cn2)CC1` (single isomer, unassigned) [Example 22, Methyl trans-4-[(1R or 1S)-1-(6-{[4-(difluoromethyl)pyridin-2-yl]amino}-4-methyl-2,3′-bipyridin-6′-yl)-1-hydroxyethyl]cyclohexanecarboxylate] here?
A: 8 nM

Q: What about the half-life at 10 μM [2] of the same molecule?
A: 4.6 min

Q: With `Cc1cc(Nc2cc(C(F)F)ccn2)nc(-c2ccc(C(C)(O)[C@H]3CC[C@H](C(=O)OCC(=O)N(C)C)CC3)nc2)c1` (single isomer, unassigned) [Example 19-18, 2-(dimethylamino)-2-oxoethyl trans-4-[(1R or 1S)-1-(6-{[4-(difluoromethyl)pyridin-2-yl]amino}-4-methyl-2,3′-bipyridin-6′-yl)-1-hydroxyethyl] cyclohexanecarboxylate] as the molecule, how does the IC50 [1] read?
A: 1.2 nM

Q: And the “Half-life (min)” value [2]?
A: 6.2 min

Q: What does the source list for `CCCCCCCOC(=O)[C@H]1CC[C@H](C(C)(O)c2ccc(-c3cc(C)cc(Nc4cc(C(F)F)ccn4)n3)cn2)CC1` (single isomer, unassigned) [Example 19-10, heptyl trans-4-[(1R or 1S)-1-(6-{[4-(difluoromethyl)pyridin-2-yl]amino}-4-methyl-2,3′-bipyridin-6′-yl)-1-hydroxyethyl] cyclohexanecarboxylate]?
A: IC50 [1]: 670 nM; Half-life (min) of the conversion of the prodrug to the carboxylic acid [2]: 40 min

Q: Which PGD2 change (Syk kinase [3]) does the source give for `Oc1cccc(Nc2ncc(F)c(Nc3cccc(O)c3)n2)c1` [Example R112] here?
A: statistically significant decrease in PGD2

Q: What about the clinical safety (Syk kinase [3]) of the same molecule?
A: safe across a range of indicators

Q: What about the efficacy versus placebo (Syk kinase [4]) of the same molecule?
A: lack of efficacy versus placebo

Reference: patent publication US9145391B2, “Bipyridylaminopyridines as Syk inhibitors” (Merck Sharp & Dohme Corp., priority 2011, dated 2015)
